# Measurements: ChEMBL document CHEMBL5096184, “Structure activity relationship in β-carboline derived anti-malarial agents” (Eur J Med Chem, 2021)
# Columns and labels:
# Plasmodium falciparum [1] = assay: Antiplasmodial activity against chloroquine sensitive Plasmodium falciparum FCB1-R/Colombia; format: functional, organism-based
# Plasmodium falciparum [2] = assay: Antiplasmodial activity against chloroquine sensitive Plasmodium falciparum W2/Indochina; format: functional, organism-based; conditions: Plasmodium falciparum, W2/Indochina
# Plasmodium falciparum [3] = assay: Antiplasmodial activity against chloroquine sensitive Plasmodium falciparum FCA 20/Ghana; format: functional, organism-based; conditions: Plasmodium falciparum, FCA 20/Ghana
# Plasmodium falciparum [4] = assay: Antimalarial activity against Plasmodium falciparum K1; format: functional, organism-based
# Plasmodium falciparum [5] = assay: Antimalarial activity against multi drug resistant Plasmodium falciparum W2; format: functional, organism-based
# [6] = Cytotoxicity against human MRC5 cells; format: toxicity, cell-based
# Plasmodium falciparum [7] = assay: Antimalarial activity against Plasmodium falciparum W2 (MRA-157) incubated for 72 hrs; format: functional, organism-based
# Plasmodium falciparum [8] = assay: Antimalarial activity against chloroquine-resistant Plasmodium falciparum; format: functional, organism-based
# Plasmodium berghei = assay: Antiplasmodial activity against Plasmodium berghei assessed as reduction in parasitemia; format: functional, organism-based
# Plasmodium falciparum [9] = assay: Antimalarial activity against chloroquine sensitive Plasmodium falciparum 3D7; format: functional, organism-based
# Plasmodium falciparum [10] = assay: Antimalarial activity against Plasmodium falciparum D6; format: functional, organism-based
# Plasmodium falciparum [11] = assay: Antimalarial activity against chloroquine sensitive Plasmodium falciparum K1; format: functional, organism-based
smiles,measurement,setting,value
C/C=C1\CN2CCc3c([nH]c4ccccc34)[C@@H]2C[C@@H]1Cc1nccc2c1[nH]c1ccccc12,IC50,Plasmodium falciparum [1],< 2000 nM
same,IC50,Plasmodium falciparum [2],594 nM
same,IC50,Plasmodium falciparum [3],1520 nM
OCCNc1nccc2c1[nH]c1ccccc12,IC50,Plasmodium falciparum [4],2400 nM
COc1ccc(C2NCCc3c2[nH]c2ccccc32)cc1 (stereo not drawn),IC50,Plasmodium falciparum [5],0.7 µM
Cn1c2c(c3ccccc31)C[C@@H]1C(=O)N([C@@H]3CCN(Cc4ccccc4)C3)CC(=O)N1[C@@H]2c1ccc2c(c1)OCO2,IC50,[6],> 64 µM
c1ccc(C2NCCc3c2[nH]c2ccccc32)cc1 (stereo not drawn),IC50,Plasmodium falciparum [5],8.1 µM
COc1cccc(C2NCCc3c2[nH]c2ccccc32)c1 (stereo not drawn),IC50,Plasmodium falciparum [7],25.1 µM
c1ccc2c(-c3nccc4c3[nH]c3ccccc34)c[nH]c2c1,IC50,Plasmodium falciparum [8],14.4 µM
O=[N+]([O-])c1cccc(C2NCCc3c2[nH]c2ccccc32)c1 (stereo not drawn),IC50,Plasmodium falciparum [7],13.6 µM
COc1ccc2[nH]cc(-c3nccc4c3[nH]c3ccc(OC)cc34)c2c1,IC50,Plasmodium falciparum [8],4.7 µM
COc1ccc(C2NCCc3c2[nH]c2ccccc32)cc1OC (stereo not drawn),IC50,Plasmodium falciparum [7],> 81.1 µM
COC(=O)[C@@H]1Cc2c([nH]c3ccccc23)[C@@H](c2ccc3c(c2)OCO3)N1,IC50,Plasmodium berghei,< 5 µg/mL
COC(=O)[C@@H]1Cc2c([nH]c3ccccc23)[C@H](c2cccs2)N1,IC50,Plasmodium berghei,< 5 µg/mL
CN(C)CCCNc1nccc2c1[nH]c1ccccc12,IC50,Plasmodium falciparum [4],450 nM
CCN(CC)C1CCN(c2nccc3c2[nH]c2ccccc23)CC1,IC50,Plasmodium falciparum [4],410 nM
CCN(CC)CCCNc1nccc2c1[nH]c1ccccc12,IC50,Plasmodium falciparum [4],640 nM
c1ccc2c(c1)[nH]c1c(N3CCOCC3)nccc12,IC50,Plasmodium falciparum [4],4590 nM
c1ccc2c(c1)[nH]c1c(N3CCC(N4CCCCCC4)CC3)nccc12,IC50,Plasmodium falciparum [4],350 nM
c1ccc2c(c1)[nH]c1c(N3CCCCC3)nccc12,IC50,Plasmodium falciparum [4],1200 nM
COC(=O)[C@@H]1Cc2c([nH]c3ccccc23)[C@H](c2cccnc2)N1,IC50,Plasmodium berghei,< 5 µg/mL
c1ccc2c(c1)[nH]c1c(N3CCC(N4CCCC4)CC3)nccc12,IC50,Plasmodium falciparum [4],450 nM
c1ccc2c(c1)[nH]c1c(N3CCC(N4CCCCC4)CC3)nccc12,IC50,Plasmodium falciparum [4],390 nM
CCCCCC[C@H]1N[C@H](C(=O)OC)Cc2c1[nH]c1ccccc21,IC50,Plasmodium berghei,< 5 µg/mL
OC1CCCN(c2nccc3c2[nH]c2ccccc23)C1 (stereo not drawn),IC50,Plasmodium falciparum [4],3400 nM
CCCCCC[C@@H]1N[C@H](C(=O)OC)Cc2c1[nH]c1ccccc21,IC50,Plasmodium berghei,< 5 µg/mL
COC(=O)[C@@H]1Cc2c([nH]c3ccccc23)[C@@H](c2cccs2)N1,IC50,Plasmodium berghei,< 5 µg/mL
CN1CCN(c2nccc3c2[nH]c2ccccc23)CC1,IC50,Plasmodium falciparum [4],620 nM
COC(=O)[C@@H]1Cc2c([nH]c3ccccc23)[C@@H](c2cccnc2)N1,IC50,Plasmodium berghei,< 5 µg/mL
COC(=O)[C@@H]1Cc2c([nH]c3ccccc23)[C@H](c2ccc3c(c2)OCO3)N1,IC50,Plasmodium berghei,< 5 µg/mL
CC1NCCc2c1[nH]c1ccc(Cl)cc21 (stereo not drawn),IC50,Plasmodium falciparum [7],4.2 µM
Clc1ccc(C2NCCc3c2[nH]c2ccccc32)cc1 (stereo not drawn),IC50,Plasmodium falciparum [7],4.8 µM
COC(=O)c1cc2c3c(c1)c1ccccc1n3C=C(C)OC2,IC50,Plasmodium falciparum [9],> 5 µM
Cc1ccc(C)c(C2NCCc3c2[nH]c2ccccc32)c1 (stereo not drawn),IC50,Plasmodium falciparum [5],28.9 µM
C=C(C)CC1OC(C)=Cn2c3ccccc3c3cc(C(=O)OC)cc1c32 (stereo not drawn),IC50,Plasmodium falciparum [9],> 5 µM
CC[C@H]1CN2CCc3c([nH]c4ccccc34)[C@@H]2C[C@@H]1C[C@H]1NCCc2c1[nH]c1ccccc21,IC50,Plasmodium falciparum [2],492 nM
same,IC50,Plasmodium falciparum [3],118 nM
O[C@]12C=C[C@@H]3CCN(CCCCCCCC1)C[C@@]31C[C@@H]3CCCCCCN3[C@H]12,IC50,Plasmodium falciparum [10],0.082 µg/mL
C=C[C@H]1CN2CCc3c([nH]c4ccccc34)[C@@H]2C[C@@H]1CC1c2[nH]c3ccccc3c2CCN1C (stereo partly drawn),IC50,Plasmodium falciparum [1],2000 nM
same,IC50,Plasmodium falciparum [2],2360 nM
same,IC50,Plasmodium falciparum [3],2500 nM
CCN(CC)CCCNc1nccc2c1[nH]c1ccc(Cl)cc12,IC50,Plasmodium falciparum [4],1080 nM
COC(=O)c1cc2c3c(c1)c1ccccc1n3C=C(C)OC2CC=C(C)C (stereo not drawn),IC50,Plasmodium falciparum [11],> 5000 nM
same,IC50,Plasmodium falciparum [9],> 5 µM
CC1NCCc2c1[nH]c1ccc(Br)cc21 (stereo not drawn),IC50,Plasmodium falciparum [7],5.7 µM
Cc1ccc(C2NCCc3c2[nH]c2ccccc32)c(C)c1 (stereo not drawn),IC50,Plasmodium falciparum [5],25.3 µM
CCN(CC)CCCNc1nccc2c1[nH]c1ccc(F)cc12,IC50,Plasmodium falciparum [4],360 nM
Oc1ccc2[nH]cc(-c3nccc4c3[nH]c3ccc(O)cc34)c2c1,IC50,Plasmodium falciparum [8],11 µM
C=C(CC1OC(C)=Cn2c3ccccc3c3cc(C(=O)OC)cc1c32)C(=O)OC (stereo not drawn),IC50,Plasmodium falciparum [11],720 nM
same,IC50,Plasmodium falciparum [9],0.57 µM
C=C[C@H]1CN2CCc3c([nH]c4ccc(O)cc34)[C@@H]2C[C@@H]1CC1c2[nH]c3ccccc3c2CCN1C (stereo partly drawn),IC50,Plasmodium falciparum [2],160 nM
same,IC50,Plasmodium falciparum [3],480 nM
[O-][N+]12CCCC/C=C\[C@H]1C[C@]13C[N@@+]4([O-])CCCC/C=C\CC[C@](O)(C=C[C@@H]1CC4)[C@@H]32 (stereo partly drawn),IC50,Plasmodium falciparum [10],0.017 µg/mL
